Some test systems named below: CAKI-1 renal; A498 renal; SW-620 colon; OVCAR-3 ovarian; ACHN renal; UACC-257 melanoma; OVCAR-8 ovarian; OVCAR-4 ovarian; RPMI-8226 leukemia; HCC-2998 colon; M14 melanoma; SF-268 CNS; OVCAR-5 ovarian; KM12 colon; SNB-19 CNS; HCT-15 colon; U251 CNS; NCI-H226 lung; NCI/ADR-RES ovarian; MCF7 breast.
Holding throughout (assay): NCI tumour cell line growth inhibition, 48 h

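Following 48 hours of exposure in 96-well plates, responses at five concentrations were used to interpolate endpoints linearly. TGI marks complete inhibition of growth.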

The record followed here is PubChem BioAssay (NCI).

For `NC(=O)N/N=C(/Cc1nc2ccc(C(=O)c3ccccc3)cc2[nH]c1=O)C(=O)Nc1ccc(C(F)(F)F)cc1[N+](=O)[O-]`, the TGI with CAKI-1 renal, in the assay with A498 renal, in the assay with SW-620 colon, in the assay on OVCAR-3 ovarian, in the assay on ACHN renal and in the assay on UACC-257 melanoma was above 100 µM in each case. For the same compound, the TGI with OVCAR-8 ovarian, with OVCAR-4 ovarian, in the assay on RPMI-8226 leukemia, in the assay with HCC-2998 colon, in the assay with M14 melanoma and in the assay on SF-268 CNS was above 100 µM in each case. In addition, the TGI with OVCAR-5 ovarian, in the assay on KM12 colon, in the assay on SNB-19 CNS, in the assay with HCT-15 colon and in the assay with U251 CNS was above 100 µM each time.

With `COc1ccc2c(c1)CC1c3c(ccc(OC)c3O)CC2N1C` (stereo not given), the TGI in the assay with CAKI-1 renal is above 100 µM; with A498 renal, above 100 µM; in the assay with SW-620 colon, 45.4 µM; with OVCAR-3 ovarian it was above 100 µM; in the assay with ACHN renal it was above 100 µM; with UACC-257 melanoma, 50.6 µM. The TGI in the assay on OVCAR-8 ovarian is above 81.3 µM; with OVCAR-4 ovarian, above 100 µM; with RPMI-8226 leukemia, 53.2 µM; with HCC-2998 colon it was 30.8 µM; in the assay with NCI-H226 lung, above 100 µM; in the assay on M14 melanoma, 32 µM. Further, the TGI was above 100 µM with SF-268 CNS; above 100 µM with OVCAR-5 ovarian; above 89.8 µM in the assay on KM12 colon; above 100 µM in the assay on SNB-19 CNS; above 100 µM with HCT-15 colon; above 59.3 µM in the assay with U251 CNS.

Turning to `C=C(C)C(O)C(O)C[C@@H](C)C1CC[C@]23C[C@]12CCC1[C@@]2(C)CCC(OC(C)=O)C(C)(C)C2CC(OC2OC(CO)C(O)C(O)C2O)[C@]13C` (stereo not given in full), the TGI in the assay on CAKI-1 renal was above 100 µM; with SW-620 colon, 30.8 µM; with OVCAR-3 ovarian, 32.3 µM; in the assay on NCI/ADR-RES ovarian it was above 100 µM; with ACHN renal, above 100 µM; in the assay with UACC-257 melanoma, 31.4 µM. The TGI with OVCAR-8 ovarian amounted to 37.1 µM; with OVCAR-4 ovarian, 41.8 µM; in the assay on RPMI-8226 leukemia, 46.5 µM; in the assay on MCF7 breast, 31 µM; with HCC-2998 colon, 29.1 µM; in the assay on NCI-H226 lung, 39.9 µM. The TGI was 28.4 µM in the assay on M14 melanoma; 33 µM in the assay with SF-268 CNS; 45.9 µM in the assay with OVCAR-5 ovarian; 31.8 µM in the assay on KM12 colon; 45.1 µM in the assay with SNB-19 CNS; above 100 µM in the assay on HCT-15 colon. The compound also gave a TGI in the assay with U251 CNS of 29.1 µM.

For the compound `COc1ccc(/C=C/C(=O)CC(=O)/C=C/c2ccc(OC)cc2)cc1`, the TGI is above 100 µM in the assay on CAKI-1 renal; above 100 µM in the assay on SW-620 colon; 75.5 µM in the assay on OVCAR-3 ovarian; above 100 µM in the assay with NCI/ADR-RES ovarian; above 100 µM with UACC-257 melanoma; 52.7 µM with OVCAR-8 ovarian. For the same compound, the TGI with RPMI-8226 leukemia, in the assay with MCF7 breast, with HCC-2998 colon, in the assay on NCI-H226 lung, in the assay on M14 melanoma and with SF-268 CNS was above 100 µM each time. Also, the TGI with OVCAR-5 ovarian, with KM12 colon, in the assay with SNB-19 CNS, in the assay with HCT-15 colon and with U251 CNS was above 100 µM in each case.

As to `CCCCN[C@H]1C2C3CC4C5CC(C42)C1(C)C53` (stereo not given in full), the TGI with CAKI-1 renal, in the assay on A498 renal, in the assay on SW-620 colon, in the assay with OVCAR-3 ovarian, with ACHN renal and in the assay with UACC-257 melanoma was above 100 µM throughout. For the same compound, the TGI in the assay on OVCAR-4 ovarian, in the assay with RPMI-8226 leukemia, in the assay with HCC-2998 colon, in the assay on NCI-H226 lung, in the assay on M14 melanoma and in the assay with SF-268 CNS was above 100 µM throughout. Moreover, the TGI in the assay on OVCAR-5 ovarian, with KM12 colon, in the assay on SNB-19 CNS, in the assay on HCT-15 colon and in the assay with U251 CNS was above 100 µM each time.

Regarding `Cc1ccc(N=NN(C)C(=O)C(C)N)cc1` (stereo not given), the TGI in the assay on CAKI-1 renal, in the assay on SW-620 colon, in the assay with OVCAR-3 ovarian, with NCI/ADR-RES ovarian, with ACHN renal and with UACC-257 melanoma was above 100 µM each time. Also, the TGI in the assay on OVCAR-8 ovarian, in the assay with OVCAR-4 ovarian, in the assay with RPMI-8226 leukemia, with MCF7 breast, in the assay on HCC-2998 colon and with NCI-H226 lung was above 100 µM in each case. For the same compound, the TGI in the assay on M14 melanoma, in the assay on SF-268 CNS, with OVCAR-5 ovarian, in the assay with KM12 colon, with SNB-19 CNS and in the assay with HCT-15 colon was above 100 µM throughout. The TGI in the assay on U251 CNS was above 100 µM.

Take `O=S(=O)(c1ccccc1)n1cc(C[P+](c2ccccc2)(c2ccccc2)c2ccccc2)c2ccccc21`: the TGI came out at 26.9 µM in the assay on CAKI-1 renal; 30 µM in the assay on A498 renal; 17.1 µM in the assay with SW-620 colon; 13.5 µM with OVCAR-3 ovarian; 28.7 µM in the assay with ACHN renal; 12.6 µM in the assay on OVCAR-8 ovarian. Besides, the TGI with OVCAR-4 ovarian came out at 22 µM; in the assay with RPMI-8226 leukemia, 18.8 µM; in the assay with HCC-2998 colon it was 15.7 µM; with NCI-H226 lung it was 18.1 µM; in the assay with M14 melanoma it was 7.04 µM; in the assay on SF-268 CNS, 18.6 µM. In addition, the TGI with OVCAR-5 ovarian came out at 32.2 µM; in the assay on KM12 colon it was 13.1 µM; with SNB-19 CNS, 6.77 µM; with HCT-15 colon, 30.5 µM; in the assay on U251 CNS it was 15.8 µM.

Consider `COc1ccc(N=Nc2c(C)c(C#N)c(=S)n(C3OC(CO)C(O)C(O)C3O)c2C)cc1` (stereo not given), for which the TGI with CAKI-1 renal, with SW-620 colon, in the assay on OVCAR-3 ovarian, in the assay on NCI/ADR-RES ovarian, in the assay on ACHN renal and with UACC-257 melanoma was above 100 µM each time. Moreover, the TGI with OVCAR-4 ovarian, with RPMI-8226 leukemia, in the assay on MCF7 breast, with M14 melanoma, with SF-268 CNS and in the assay on OVCAR-5 ovarian was above 100 µM in each case. Besides, the TGI with KM12 colon, in the assay with SNB-19 CNS, in the assay on HCT-15 colon and in the assay with U251 CNS was above 100 µM in each case.
